For one test, the target named is Carbonic anhydrase 1 (Homo sapiens, UniProt P00915). The test is described as follows: Esterase Assay. The note with it: pH 7.4. Here is the method: (§1) CA activity was assayed by following the change in absorbance at 348 nm of 4-nitrophenylacetate (NPA) to 4-nitrophenylate ion over a period of 3 min at 25°Cusing a spectrophotometer (CHEBIOS UV-VIS) according to the method described by Verpoorte et al. [Verpoorte et al., J. Biol. Chem., 242:4221-4229] The enzymatic reaction contained 1.4 mL 0.05 M Tris-SO4 buffer (pH 7.4), 1 mL 3 mM 4-NPA, 0.5 mL H2O and 0.1 mL enzyme solution (total volume, 3.0 mL). A reference measurement was obtained by preparing the mixture without the enzyme solution. All measurements were made in triplicate. The Ki values were determined from a series of experiments using three different bromophenols concentrations and 4-NPA as the substrate at five different concentrations to construct Lineweaver-Burk curves [Lineweaver et al., J. Am. Chem. Soc., 57:685-693].

For the next test, the target named is Carbonic anhydrase 2 (Homo sapiens, UniProt P00918). Put plainly: Esterase Assay. The conditions noted are these: pH 7.4. Here is the method: as §1

The text below walks through data of BindingDB's records for doi:10.3109/14756366.2012.670807 (Atatürk University, 2013).

pIC50, pKi: −log10 of the molar value.

Chain of Carbonic anhydrase 1 (P00915 whole entry): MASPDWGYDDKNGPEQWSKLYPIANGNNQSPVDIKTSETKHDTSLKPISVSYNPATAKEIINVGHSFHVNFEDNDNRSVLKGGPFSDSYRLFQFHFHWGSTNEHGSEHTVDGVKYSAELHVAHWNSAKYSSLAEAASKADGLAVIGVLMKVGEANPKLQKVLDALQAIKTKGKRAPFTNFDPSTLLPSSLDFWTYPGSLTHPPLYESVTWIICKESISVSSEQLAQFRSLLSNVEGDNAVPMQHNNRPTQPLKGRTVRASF

For the molecule `Oc1ccc(Cc2ccc(O)c(O)c2O)cc1O` [Carbonic anhydrase isoenzymes inhibitor, 15], the pIC50 is 4.27 against Carbonic anhydrase 1 and 4.10 against Carbonic anhydrase 2. Besides, the pKi on Carbonic anhydrase 1 was 5.08; at Carbonic anhydrase 2, 4.37.
On to `O=C(c1ccc(O)c(O)c1)c1cc(Br)c(O)c(O)c1O` [Carbonic anhydrase isoenzymes inhibitor, 13], for which the pIC50 was 5.16 against Carbonic anhydrase 1 and 4.73 at Carbonic anhydrase 2. Also, the pKi on Carbonic anhydrase 1 was 5.17; on Carbonic anhydrase 2, 5.49.
On Carbonic anhydrase 1, `Oc1cc(Br)c(Cc2cc(Br)c(O)c(O)c2O)cc1O` [Carbonic anhydrase isoenzymes inhibitor, 16] had a pIC50 of 5.37 and a pKi of 5.59. The molecule further showed a pIC50 at Carbonic anhydrase 2 of 4.20.
With `O=C(c1cc(O)c(O)cc1Br)c1cc(Br)c(O)c(O)c1O` [Carbonic anhydrase isoenzymes inhibitor, 14], the negative-log IC50 (pIC50) against Carbonic anhydrase 1 was 5.49; on Carbonic anhydrase 2, 4.61. The pKi on Carbonic anhydrase 1 was 5.92; at Carbonic anhydrase 2 it was 4.54.
The matching figures for `O=C(c1ccc(O)c(O)c1)c1ccc(O)c(O)c1O` [Carbonic anhydrase isoenzymes inhibitor, 5]: 4.56, 3.85, 4.49 and 4.64.
